Laboratory results reported in the supplement of paper PMC10307832.

Assays:
Test in all cases: relative viability (nuclei count vs DMSO), 5 days (fraction); higher = more cells survive
Bemcentinib + Olaparib = compound: Nc1nc(Nc2ccc3c(c2)CC[C@@H](N2CCCC2)CC3)nn1-c1cc2c(nn1)-c1ccccc1CCC2 [Bemcentinib] + O=C(c1cc(Cc2n[nH]c(=O)c3ccccc23)ccc1F)N1CCN(C(=O)C2CC2)CC1 [Olaparib] (partner 8 µM)
Outline: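 One day after seeding in 1536-well plates, lung cancer cell lines were dosed by pin tool. Dosing was either single-drug or a fixed anchor-drug dose plus five library-drug doses (not always all listed) in √10 steps. After 5 days, nuclei were stained in one fix-and-stain step and counted on 4× images, and relative viability is the nuclei count of treated wells over that of vehicle wells, given as the median of duplicate plates.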

Pifithrin_alpha = compound: CC1=CC=C(C=C1)C(=O)CN2C3=C(CCCC3)SC2=N [Pifithrin_alpha]
Outline: (§1)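 Only plates meeting two conditions passed: control CV below 25% and at least one doubling. Lung cancer cell lines, kept overnight at 37 °C in 1536-well plates, were pinned with five library-drug doses (not always all listed) √10 apart on vehicle-anchored plates and grown 5 days without medium change. A one-step fix, permeabilisation and Hoechst stain preceded 4× imaging and MetaXpress nuclear counting. Viability equals treated-well nuclei divided by vehicle-well nuclei, as the median over plates.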

Bemcentinib = compound: Nc1nc(Nc2ccc3c(c2)CC[C@@H](N2CCCC2)CC3)nn1-c1cc2c(nn1)-c1ccccc1CCC2 [Bemcentinib]
Outline: as §1

Axitinib = compound: CNC(=O)c1ccccc1Sc1ccc2c(/C=C/c3ccccn3)n[nH]c2c1 [Axitinib]
Outline: as §1

## NCI-H650
Bemcentinib + Olaparib; first compound 0.04 µM
  relative viability: 0.402
Bemcentinib + Olaparib; first compound 0.1265 µM
  relative viability: 0.424
Bemcentinib + Olaparib; first compound 0.4 µM
  relative viability: 0.42
Bemcentinib + Olaparib; first compound 1.265 µM
  relative viability: 0.424
Bemcentinib + Olaparib; first compound 4 µM
  relative viability: 0.36
Pifithrin_alpha; 3.162 µM
  relative viability: 0.912
Pifithrin_alpha; 10 µM
  relative viability: 1.07
Pifithrin_alpha; 31.62 µM
  relative viability: 0.766
Pifithrin_alpha; 100 µM
  relative viability: 0.863
Bemcentinib; 0.04 µM
  relative viability: 0.866
Bemcentinib; 0.1265 µM
  relative viability: 1.01
Bemcentinib; 0.4 µM
  relative viability: 1.15
Bemcentinib; 1.265 µM
  relative viability: 0.838
Bemcentinib; 4 µM
  relative viability: 0.871
Axitinib; 0.005 µM
  relative viability: 1.01
Axitinib; 0.01581 µM
  relative viability: 0.983
Axitinib; 0.05 µM
  relative viability: 0.892
Axitinib; 0.1581 µM
  relative viability: 1.1
Axitinib; 0.5 µM
  relative viability: 1.01
